Experimental findings from patent US20080248131A1 (Metaproteomics, LLC, priority 2005, published 2008) are described below.

SMILES strings stand for the structures.

Assay [1] has as its system adiponectin secretion, 3T3-L1 adipocytes. Nature of the assay: Adiponectin secretion in LPS/3T3-L1 adipocytes. It counts as cell-based, murine.
The test system is the same in assay [2]. Nature of the assay: Adiponectin secretion from insulin-resistant 3T3-L1 adipocytes. The format is cell-based, murine.
Assay [3] has as its system IL-6 secretion, 3T3-L1 adipocytes. Kind of assay: IL-6 secretion from TNFα-treated 3T3-L1 adipocytes. The settings on record: 10 ng TNFα/ml.
The test system of assay [4] is adiponectin secretion, 3T3-L1 adipocytes. Nature of the assay: Adiponectin secretion from TNFα-treated 3T3-L1 adipocytes. It counts as cell-based, murine. The settings on record: 10 ng TNFα/ml.
Procedure: 3T3-L1 cells were seeded at an initial density of 1×10^4 cells/cm^2 in 96-well plates. For two days, the cells were allowed grow to reach confluence. Following confluence, the cells were forced to differentiate into adipocytes by the addition of differentiation medium; this medium consisted of (1) 10% FBS/DMEM (high glucose); (2) 0.5 mM methylisobutylxanthine; (3) 0.5 μM dexamethasone and (4) 10 μg/ml insulin (MDI medium). From Day 3 through Day 5, the medium was changed to post-differentiation medium consisting of 10% FBS in DMEM. […] On Day 6, the supernatant medium was sampled for adiponectin determination.
Statistical Calculations and Interpretation—All assays were preformed in duplicate. […] Differences among the doses and test agents were determined using the Student's t-test without correction for multiple comparisons; the nominal five percent probability of a type I error was selected.
Assay [5] has as its system NF-kBp65 nuclear translocation. Nature of the assay: Nuclear NF-kBp65 in TNFα-treated 3T3-L1 adipocytes. The settings on record: three or 24 hours. The format is cell-based, murine. Here is the method:
Cell Culture and Treatment—Following differentiation 3T3-L1 adipocytes were maintained in post-differentiation medium for an additional 40 days. […] Hops derivatives and the positive control pioglitazone were tested at concentrations of 2.5, and 5.0 μg/ml. Test materials were added 1 hour prior to and nuclear extracts were prepared three and 24 hours following treatment with TNFα.
ELISA—3T3-L1 adipocytes were maintained in growth media for 40 days following differentiation. Nuclear NF-kBp65 was determined using the TransAM™ NF-kB kit from Active Motif (Carlsbad, Calif.) was used with no modifications. Jurkat nuclear extracts provided in the kit were derived from cells cultured in medium supplemented with 50 ng/ml TPA (phorbol, 12-myristate, 13 acetate) and 0.5 μM calcium ionophore A23187 for two hours at 37° C. immediately prior to harvesting.
Protein assay—Nuclear protein was quantified using the Active Motif Fluorescent Protein Quantification Kit.

Assay [6] deals with DBA/J mice. Nature of the assay: Collagen induced rheumatoid arthritis murine model, arthritic index. It counts as in vivo, mouse. As to conditions: 10 mg/kg.
Procedure: The mice were injected intradermally on day 0 with a mixture containing 100 μg of type II collagen and 100 μg of Mycobacterium tuberculosis in squalene. A booster injection was repeated on day 21. Mice were examined on days 22-27 for arthritic signs with nonresponding mice removed from the study.
Arthritic symptomology was assessed (scored 0-4) for each paw using a arthritic index as described below. Under this arthritic index 0=no visible signs; 1=edema and/or erythema: single digit; 2=edema and or erythema: two joints; 3=edema and or erythema: more than two joints; and 4=severe arthritis of the entire paw and digits associated with ankylosis and deformity.
For assay [7], the system named is human PI3K-β, PI3K-γ, and PI3K-δ. Kind of assay: PI3K isoform inhibition (Example 3). The format is biochemical. The settings on record: 50 μg/ml. Here is the method:
Additionally examined was an Acacia nilotica heartwood extract. All compounds were tested at 50 μg/ml. The results are presented graphically as FIG. 3. […] Mg-IAA was approximately 3-fold more inhibitory to PI3K-β than to PI3K-γ or PI3K-δ.

As to `CC(=O)Oc1ccccc1C(=O)O` [Aspirin, aspirin], in assay [1], the “adiponectin secretion in LPS-treated adipocytes, in words” value is recorded as “failed to induce adiponectin secretion”.

Take `CC(C)CCC1=C(O)C(C(=O)C(C)C)=C(O)C(CCC(C)C)(CCC(C)C)C1=O` [hexahydro colupulone]: in assay [2], the “concentration of maximal observed adiponectin secretion” value came out at 12.5 µg/mL. Turning to `COc1ccc2c(c1)c(CC(=O)O)c(C)n2C(=O)c1ccc(Cl)cc1` [indomethacin], the “IL-6 secretion in presence of TNFα, in words” value in assay [3] is given as “no anti-inflammatory effect”.

With `CCc1ccc(CCOc2ccc(CC3SC(=O)NC3=O)cc2)nc1` (centres unmarked) [pioglitazone], in assay [4], the “maximal restoration of adiponectin secretion, times the TNFα treatment” value amounted to 1.47 times. Also, the “nuclear NF-kBp65, in words” value in assay [5] is “did not inhibit”. With `C[C@]12C=CC(=O)C=C1CC[C@@H]1[C@@H]2[C@@H](O)C[C@@]2(C)[C@H]1CC[C@]2(O)C(=O)CO` [prednisolone], the “days with significant reduction of arthritic index” value in assay [6] was “days 30-42”. In the case of `O=C(O)c1ccccc1O` [salicylic acid], the “adiponectin secretion in LPS-treated adipocytes, in words” value in assay [1] was “failed to induce adiponectin secretion”. Turning to `COc1cc(O)c(CC=C(C)C)c(O)c1C(=O)/C=C/c1ccc(O)cc1` [xanthohumol], the “effect on PI3K isoforms, in words” value in assay [7] is recorded as “more inhibitory to PI3K-γ than to PI3K-β or PI3K-δ”.
